Test results as given in US20240239806A1, “COMPOUNDS, COMPOSITIONS AND METHODS OF TREATING DISORDERS” (Chengdu Anticancer Bioscience, Ltd., priority 2021, published 2024).
Like-named read-outs stand apart in the source and are kept apart here.

Assays:
Assay type in all cases: cell-based
[1] = tested on: RPEMYC^H2B-GFP cells; assay: Phenotypic screening assay (mitotic arrest, polyploidy); conditions: 1 nM to 30 μM; for IC50: read-out: Proliferative arrest (>50%)
In short: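 RPE cells expressing MYC and H2B-EGFP treated with compound at 1 nM–30 μM; mitotic index scored at 24 h and polyploidy (DNA content) at 48 h by automated imaging, with reads at 24, 48 or 72 h. Hits show transient mitotic arrest followed by polyploid accumulation.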

[2] = tested on: HCT116; assay: MECP in cancer cell line; conditions: Homo sapiens, HCT-116
In short: (§1)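 Cancer lines were grown in DMEM with 5% FBS, 2 mM L-glutamine and 1 mM sodium pyruvate at 37 °C, 5% CO2, then exposed to compound from 1 nM to 30 μM. High-content imaging at 24, 48 or 72 h scored mitotic arrest or DNA-content change; values binned A–D.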

[3] = tested on: Hela; assay: MECP in cancer cell line; conditions: Homo sapiens
In short: as §1

[4] = tested on: MDA-MB-231; assay: MECP in cancer cell line; conditions: Homo sapiens
In short: as §1

[5] = tested on: NCI-H460; assay: MECP in cancer cell line; conditions: Homo sapiens
In short: as §1

[6] = tested on: NCI-H596; assay: MECP in cancer cell line; conditions: Homo sapiens
In short: as §1

[7] = tested on: T2 HCC; assay: MECP in cancer cell line; conditions: Mus musculus
In short: as §1

[8] = tested on: T98G; assay: MECP in cancer cell line; conditions: Homo sapiens
In short: as §1

[9] = tested on: NCI-H23; assay: MECP in cancer cell line; conditions: Homo sapiens
In short: as §1

[10] = tested on: HCT116; assay: MTT assay of cellular proliferation; conditions: Homo sapiens, HCT-116, 50% inhibition of cellular proliferation
In short: (§2)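 MTT viability readout, formazan OD 570 nm after 3-4 h dye incubation. Cells seeded 15-24 h to 20-30% confluence, dosed 1 nM-30 μM. DMEM/5% FBS, 37 °C, 5% CO2. EC50 = concentration giving 50% proliferation inhibition.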

[11] = tested on: Hela; assay: MTT assay of cellular proliferation; conditions: Homo sapiens, 50% inhibition of cellular proliferation
In short: as §2

[12] = tested on: MDA-MB-231; assay: MTT assay of cellular proliferation; conditions: Homo sapiens; MDA-MB-231, MTT, 50% inhibition of cellular proliferation
In short: as §2

[13] = tested on: NCI-H23; assay: MTT assay of cellular proliferation; conditions: Homo sapiens, 50% inhibition of cellular proliferation
In short: as §2

[14] = tested on: NCI-H460; assay: MTT assay of cellular proliferation; conditions: Homo sapiens, 50% inhibition of cellular proliferation
In short: as §2

[15] = tested on: T2 HCC; assay: MTT assay of cellular proliferation; conditions: Mus musculus, 50% inhibition of cellular proliferation
In short: as §2

[16] = tested on: T98G; assay: MTT assay of cellular proliferation; conditions: Homo sapiens, 50% inhibition of cellular proliferation
In short: as §2

[17] = read-out: Min. Effective conc. for Polyploidy (≥5%)

Structure (SMILES)	minimal effective concentration [1, 17]	minimal effective concentration ([1]; read-out: Mitotic Arrest (≥5%))	IC50 [1]	minimal effective concentration [2]	minimal effective concentration [3]	minimal effective concentration [4]	minimal effective concentration [5]	minimal effective concentration [6]	minimal effective concentration [7]	minimal effective concentration [8]	minimal effective concentration [9]	EC50 [10]	EC50 [11]	EC50 [12]	EC50 [13]	EC50 [14]	EC50 [15]	EC50 [16]	other results
COc1cc(OC)cc(Oc2ccnc3ccccc23)c1 [Compound 7, 4-(3,5-dimethoxyphenoxy)quinoline]	0.001 to 1 µM	0.001 to 1 µM	1 to 1000 nM	0.001 to 1 µM	0.001 to 1 µM	0.001 to 1 µM	1 to 10 µM	0.001 to 1 µM	1 to 10 µM	0.001 to 1 µM	0.001 to 1 µM	1 to 1000 nM	1000 to 10000 nM	1 to 1000 nM	1 to 1000 nM	1000 to 10000 nM	1000 to 10000 nM	1 to 1000 nM	
COC(=O)c1cc(OC)cc(Oc2ncnc3cc(OC)c(OC)cc23)c1 [Compound 29]	0.001 to 1 µM	0.001 to 1 µM	1 to 1000 nM	1 to 10 µM	0.001 to 1 µM	1 to 10 µM	1 to 10 µM	0.001 to 1 µM	0.001 to 1 µM	1 to 10 µM	0.001 to 1 µM	1000 to 10000 nM	1 to 1000 nM	1 to 1000 nM	1 to 1000 nM	> 30000 nM	1 to 1000 nM	1000 to 10000 nM	
COC(=O)c1cc(OC)cc(Oc2ncnc3cc[nH]c23)c1 [Compound 34, methyl 3-((5H-pyrrolo[3,2-d]pyrimidin-4-yl)oxy)-5-methoxybenzoate]	0.001 to 1 µM	0.001 to 1 µM	1 to 1000 nM	0.001 to 1 µM	0.001 to 1 µM	0.001 to 1 µM	1 to 10 µM	0.001 to 1 µM	0.001 to 1 µM	1 to 10 µM	0.001 to 1 µM	1 to 1000 nM	1 to 1000 nM	1 to 1000 nM	1 to 1000 nM	> 30000 nM	1 to 1000 nM	> 30000 nM	
COC(=O)c1cc(Oc2ncnc3cc[nH]c23)cc(C(=O)OC)c1 [Compound 36, dimethyl 5-((5H-pyrrolo[3,2-d]pyrimidin-4-yl)oxy)isophthalate]	0.001 to 1 µM	0.001 to 1 µM	1 to 1000 nM	0.001 to 1 µM	0.001 to 1 µM	0.001 to 1 µM	1 to 10 µM	0.001 to 1 µM	0.001 to 1 µM	0.001 to 1 µM	0.001 to 1 µM	1 to 1000 nM	1 to 1000 nM	1 to 1000 nM	1 to 1000 nM	> 30000 nM	1 to 1000 nM	1 to 1000 nM	
COC(=O)c1cc(OC)cc(Oc2ncnc3ccsc23)c1 [Compound 37, methyl 3-methoxy-5-(thieno[3,2-d]pyrimidin-4-yloxy)benzoate]	0.001 to 1 µM	0.001 to 1 µM	1 to 1000 nM	0.001 to 1 µM	0.001 to 1 µM	0.001 to 1 µM	1 to 10 µM	0.001 to 1 µM	0.001 to 1 µM	1 to 10 µM	0.001 to 1 µM	1 to 1000 nM	1 to 1000 nM	1 to 1000 nM	1 to 1000 nM	> 30000 nM	1 to 1000 nM	> 30000 nM	
COC(=O)c1cc(Oc2ncnc3ccsc23)cc(C(=O)OC)c1 [Compound 39, dimethyl 5-(thieno[3,2-d]pyrimidin-4-yloxy)isophthalate]	0.001 to 1 µM	0.001 to 1 µM	1 to 1000 nM	0.001 to 1 µM	0.001 to 1 µM	0.001 to 1 µM	1 to 10 µM	0.001 to 1 µM	0.001 to 1 µM	0.001 to 1 µM	0.001 to 1 µM	1 to 1000 nM	1 to 1000 nM	1 to 1000 nM	1 to 1000 nM	> 30000 nM	1 to 1000 nM	1 to 1000 nM	Min. Effective conc. for Polyploidy (≥5%) [1]: B (a value greater than 1.00 μM and less than or equal to 10.0 μM); Mitotic Arrest (≥5%) [1]: B (a value greater than 1.00 μM and less than or equal to 10.0 μM); Proliferative arrest (>50%) [1]: B (a value greater than 1.00 μM and less than or equal to 10.0 μM); Along with Cell Death ([1]; listed as 33): B (a value greater than 1.00 μM and less than or equal to 10.0 μM)
